Assay results taken from patent publication US7157241B2, “Serine protease genes related to DPPIV” (Ferring BV, priority 2000, dated 2007).
Blank lines part the entries; values can stand above or below the compound they belong to. Square brackets hold non-standard residues; d marks the D form. Peptide text beside a SMILES is read from it. * marks the point of attachment. Sta = CC(C)C[C@H](N)[C@@H](O)CC(=O)O; pNA = O=[N+]([O-])c1ccc(N*)cc1; AMC = Cc1cc(=O)oc2cc(N*)ccc12; Isovaleryl = CC(C)CC(=O)*

Key:
Assay type in all cases: biochemical
DPPIV [1] = target: T1, DPPIV (Homo sapiens, UniProt P27487); assay: Inhibition of DPPIV by protease inhibitors (Ala-Pro-AMC fluorescence); details: for Residual activity (% of control) DPPIV: preincubated 30 min at room temperature, Ala-Pro-AMC 100 μM
T1 sequence (P27487 whole entry): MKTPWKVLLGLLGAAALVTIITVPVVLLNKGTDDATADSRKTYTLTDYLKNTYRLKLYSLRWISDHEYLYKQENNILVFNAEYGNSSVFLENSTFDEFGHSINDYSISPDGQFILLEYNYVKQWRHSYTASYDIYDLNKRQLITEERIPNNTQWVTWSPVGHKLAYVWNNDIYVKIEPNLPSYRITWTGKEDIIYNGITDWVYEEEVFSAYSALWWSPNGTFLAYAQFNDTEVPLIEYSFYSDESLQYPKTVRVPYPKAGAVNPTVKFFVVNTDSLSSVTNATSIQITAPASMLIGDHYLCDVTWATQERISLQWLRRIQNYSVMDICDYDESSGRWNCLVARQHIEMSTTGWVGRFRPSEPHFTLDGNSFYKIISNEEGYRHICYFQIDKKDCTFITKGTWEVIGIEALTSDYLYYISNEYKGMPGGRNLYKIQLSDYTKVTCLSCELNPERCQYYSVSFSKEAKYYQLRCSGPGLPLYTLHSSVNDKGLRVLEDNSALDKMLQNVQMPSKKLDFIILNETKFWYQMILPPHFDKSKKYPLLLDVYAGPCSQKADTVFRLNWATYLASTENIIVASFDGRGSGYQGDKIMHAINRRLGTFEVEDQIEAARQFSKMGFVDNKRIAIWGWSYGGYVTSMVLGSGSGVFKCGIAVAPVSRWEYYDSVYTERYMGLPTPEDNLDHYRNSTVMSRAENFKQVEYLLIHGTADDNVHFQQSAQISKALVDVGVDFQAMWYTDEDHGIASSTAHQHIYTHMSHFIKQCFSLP
Protocol: (§1) The kinetic properties of recombinant DPRP-1 and DPRP-2 were determined in a continuous fluorimetric assay. Buffer, pH and temperature dependence optimization led to the following assay conditions: Enzyme assays were performed in 50 mM PBS, pH7.4 50 μl (50 μg/ml) of purified enzymes were mixed with 1 μl of different concentration of Ala-Pro-AMC (Enzyme Systems). Plates were then incubated at 37° C. for 30 min, and fluorescence was detected using a Wallac 1420 Fluorimeter with λex40355 and λem535.
(§2) The two purified proteases and DPPIV were preincubated with inhibitors at room temperature for 30 min. Substrate, Ala-Pro-AMC (100 μM), was then added, and the fluorescence intensity was recorded as 60 readings during a 60 min period.

DPRP-2 [2] = target: T2, DPRP-2 (Homo sapiens, UniProt Q86TI2); assay: Inhibition of DPRP-2 by protease inhibitors (Ala-Pro-AMC fluorescence); details: for Residual activity (% of control) DPRP-2: preincubated 30 min at room temperature, Ala-Pro-AMC 100 μM
T2 construct: DNA fragments encoding the full length polypeptide DPRP-2 were amplified using PCR oligonucleotide primers; made in house; host or cells: PEAK or COS-1 cells, transient transfection
T2 sequence (Q86TI2 whole entry, the tested form may be a part): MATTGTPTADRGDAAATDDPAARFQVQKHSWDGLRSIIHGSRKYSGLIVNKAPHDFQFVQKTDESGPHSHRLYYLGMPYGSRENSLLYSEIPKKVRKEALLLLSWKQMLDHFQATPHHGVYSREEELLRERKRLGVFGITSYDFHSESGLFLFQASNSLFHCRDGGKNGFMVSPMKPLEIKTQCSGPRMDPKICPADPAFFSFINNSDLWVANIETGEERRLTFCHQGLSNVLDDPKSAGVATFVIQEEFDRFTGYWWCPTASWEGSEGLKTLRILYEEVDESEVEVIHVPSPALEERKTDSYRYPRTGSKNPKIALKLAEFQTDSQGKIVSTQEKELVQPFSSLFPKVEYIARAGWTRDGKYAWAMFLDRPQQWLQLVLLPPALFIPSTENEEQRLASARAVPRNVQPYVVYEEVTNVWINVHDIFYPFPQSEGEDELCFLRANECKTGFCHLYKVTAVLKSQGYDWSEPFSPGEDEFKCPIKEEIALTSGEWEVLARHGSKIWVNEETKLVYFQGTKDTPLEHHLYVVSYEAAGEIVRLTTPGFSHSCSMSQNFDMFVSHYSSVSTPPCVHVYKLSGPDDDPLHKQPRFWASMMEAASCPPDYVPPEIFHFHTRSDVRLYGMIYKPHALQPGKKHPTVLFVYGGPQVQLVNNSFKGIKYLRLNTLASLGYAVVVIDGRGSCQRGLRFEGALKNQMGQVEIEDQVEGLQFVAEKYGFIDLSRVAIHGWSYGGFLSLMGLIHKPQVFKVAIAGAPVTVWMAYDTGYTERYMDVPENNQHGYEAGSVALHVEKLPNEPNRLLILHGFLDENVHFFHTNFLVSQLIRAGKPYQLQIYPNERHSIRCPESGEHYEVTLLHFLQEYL
Protocol: as §1, §2

DPRP-1 [3] = target: T3, DPRP-1 (Homo sapiens, UniProt Q6V1X1); assay: Inhibition of DPRP-1 by protease inhibitors (Ala-Pro-AMC fluorescence); details: for Residual activity (% of control) DPRP-1: preincubated 30 min at room temperature, Ala-Pro-AMC 100 μM
T3 construct: DNA fragments encoding the full-length polypeptide DPRP-1 were amplified using PCR oligonucleotide primers; made in house; host or cells: PEAK or COS-1 cells, transient transfection
T3 sequence (Q6V1X1 17-898): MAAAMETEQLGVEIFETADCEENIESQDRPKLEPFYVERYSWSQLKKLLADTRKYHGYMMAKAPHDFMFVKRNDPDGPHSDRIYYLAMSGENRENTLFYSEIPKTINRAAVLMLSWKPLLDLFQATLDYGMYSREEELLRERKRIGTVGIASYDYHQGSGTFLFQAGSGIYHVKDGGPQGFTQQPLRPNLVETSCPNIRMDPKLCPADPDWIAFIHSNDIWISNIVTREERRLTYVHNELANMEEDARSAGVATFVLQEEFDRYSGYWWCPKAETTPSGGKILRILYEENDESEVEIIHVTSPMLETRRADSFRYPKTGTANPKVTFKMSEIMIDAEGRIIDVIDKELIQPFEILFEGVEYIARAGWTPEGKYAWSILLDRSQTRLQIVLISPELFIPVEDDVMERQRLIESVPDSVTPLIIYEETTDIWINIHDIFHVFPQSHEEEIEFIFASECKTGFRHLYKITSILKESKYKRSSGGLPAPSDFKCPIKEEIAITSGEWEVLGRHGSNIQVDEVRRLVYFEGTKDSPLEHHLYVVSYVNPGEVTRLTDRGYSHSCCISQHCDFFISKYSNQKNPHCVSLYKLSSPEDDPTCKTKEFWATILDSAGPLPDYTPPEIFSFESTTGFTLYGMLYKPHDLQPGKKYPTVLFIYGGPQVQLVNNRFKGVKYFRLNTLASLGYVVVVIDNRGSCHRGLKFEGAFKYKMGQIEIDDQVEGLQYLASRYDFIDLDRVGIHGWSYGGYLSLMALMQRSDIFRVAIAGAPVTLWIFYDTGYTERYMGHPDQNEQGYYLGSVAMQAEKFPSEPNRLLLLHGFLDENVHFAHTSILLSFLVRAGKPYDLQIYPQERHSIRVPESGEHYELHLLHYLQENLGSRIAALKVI
Protocol: as §1, §2

DPPIV [4] = target: T1, DPPIV; assay: Substrate specificity, DPPIV; details: substrate 125 μM, 30-minute incubation with enzyme
Protocol: (§3) In addition to Ala-Pro-AMC, additional substrates tested also confirmed that DPRP-1 and DPRP-2 are dipeptidyl peptidases. The data were derived by determining the fluorescence change following a 30-minute incubation of the substrates (125 μM) with enzymes as a percentage of the fluorescence measured at Ala-Pro-AMC and Gly-Pro-AMC were the only good substrates among those tested.

DPRP-1 [5] = target: T3, DPRP-1; assay: Substrate specificity, DPRP-1; details: substrate 125 μM, 30-minute incubation with enzyme
Protocol: as §3

DPRP-2 [6] = target: T2, DPRP-2; assay: Substrate specificity, DPRP-2; details: substrate 125 μM, 30-minute incubation with enzyme
Protocol: as §3

DPRP-1 [7] = target: T3, DPRP-1; assay: Continuous fluorimetric assay, kinetic properties of recombinant DPRP-1; details: substrate Ala-Pro-AMC; 50 mM PBS, pH7.4, 37° C., 30 min
Protocol: as §1

DPRP-2 [8] = target: T2, DPRP-2; assay: Continuous fluorimetric assay, kinetic properties of recombinant DPRP-2; details: substrate Ala-Pro-AMC; 50 mM PBS, pH7.4, 37° C., 30 min
Protocol: as §1

[9] = protease inhibitor panel of Table 5

% Change in Fluorescence at 30 minutes DPPIV (DPPIV [4]): 2.0%
% Change in Fluorescence at 30 minutes DPRP-1 (DPRP-1 [5]): −4%
% Change in Fluorescence at 30 minutes DPRP-2 (DPRP-2 [6]): −0.5%
Compound: C[C@H](N)C(=O)N[C@@H](Cc1ccccc1)C(=O)N1CCC[C@H]1C(=O)Nc1ccc([N+](=O)[O-])cc1 [Ala-Phe-Pro-pNA] (H-Ala-Phe-Pro-pNA)

% Change in Fluorescence at 30 minutes DPPIV (DPPIV [4]): 379.0%
% Change in Fluorescence at 30 minutes DPRP-1 (DPRP-1 [5]): 239.0%
% Change in Fluorescence at 30 minutes DPRP-2 (DPRP-2 [6]): 127.5%
Km (DPRP-1 [7]): 208 µM
Km (DPRP-2 [8]): 161 µM
Compound: Cc1cc(=O)oc2cc(NC(=O)[C@@H]3CCCN3C(=O)[C@H](C)N)ccc12 [Ala-Pro-AMC] (H-Ala-Pro-{AMC})

% Change in Fluorescence at 30 minutes DPPIV (DPPIV [4]): 29.5%
% Change in Fluorescence at 30 minutes DPRP-1 (DPRP-1 [5]): 45.5%
% Change in Fluorescence at 30 minutes DPRP-2 (DPRP-2 [6]): 44.0%
Compound: C[C@H](N)C(=O)N1CCC[C@H]1C(=O)Nc1ccc([N+](=O)[O-])cc1 [Ala-Pro-pNA] (H-Ala-Pro-pNA)

% Change in Fluorescence at 30 minutes DPPIV (DPPIV [4]): 0.0%
% Change in Fluorescence at 30 minutes DPRP-1 (DPRP-1 [5]): −1%
% Change in Fluorescence at 30 minutes DPRP-2 (DPRP-2 [6]): −2.5%
Compound: O=C(Nc1ccc([N+](=O)[O-])cc1)[C@@H]1CCCN1 [Pro-pNA]

Continued, compound first:

Compound: NCCc1ccc(S(=O)(=O)F)cc1 [AEBSF]
Residual activity (% of control) DPPIV (DPPIV [1]; inhibitor 5 mM): 21.1 % of control
Inhibition of DPPIV (in words) (DPPIV [1]; [9]): strong inhibition
Residual activity (% of control) DPRP-2 (DPRP-2 [2]; inhibitor 5 mM): 23.9 % of control
Inhibition of DPRP-2 (in words) (DPRP-2 [2]; [9]): strong inhibition
Residual activity (% of control) DPRP-1 (DPRP-1 [3]; inhibitor 5 mM): 29.6 % of control
Inhibition of DPRP-1 (in words) (DPRP-1 [3]; [9]): strong inhibition

Compound: OCCS [B-Mercaptoethonal]
Residual activity (% of control) DPPIV (DPPIV [1]; inhibitor 100 mM): 98.0 % of control
Residual activity (% of control) DPRP-2 (DPRP-2 [2]; inhibitor 100 mM): 84.0 % of control
Residual activity (% of control) DPRP-1 (DPRP-1 [3]; inhibitor 100 mM): 93.2 % of control

Compound: O[C@@H](CS)[C@@H](O)CS [DTT]
Residual activity (% of control) DPPIV (DPPIV [1]; inhibitor 2 mM): 98.3 % of control
Residual activity (% of control) DPRP-2 (DPRP-2 [2]; inhibitor 2 mM): 94.8 % of control
Residual activity (% of control) DPRP-1 (DPRP-1 [3]; inhibitor 2 mM): 100.1 % of control

Compound: O=C(O)CN(CCN(CC(=O)O)CC(=O)O)CC(=O)O [EDTA]
Residual activity (% of control) DPPIV (DPPIV [1]; inhibitor 2 mM): 93.5 % of control
Residual activity (% of control) DPRP-2 (DPRP-2 [2]; inhibitor 2 mM): 86.0 % of control
Residual activity (% of control) DPRP-1 (DPRP-1 [3]; inhibitor 2 mM): 91.5 % of control

Compound: NCC(=O)N[C@@H](CCCN=C(N)N)C(=O)Nc1ccc([N+](=O)[O-])cc1 [Gly-Arg-pNA] (H-Gly-Arg-pNA)
% Change in Fluorescence at 30 minutes DPPIV (DPPIV [4]): 0.0%
% Change in Fluorescence at 30 minutes DPRP-1 (DPRP-1 [5]): −4.5%
% Change in Fluorescence at 30 minutes DPRP-2 (DPRP-2 [6]): −0.5%

Compound: Cc1cc(=O)oc2cc(NC(=O)[C@@H]3CCCN3C(=O)CN)ccc12 [Gly-Pro-AMC] (H-Gly-Pro-{AMC})
% Change in Fluorescence at 30 minutes DPPIV (DPPIV [4]): 444.0%
% Change in Fluorescence at 30 minutes DPRP-1 (DPRP-1 [5]): 341.5%
% Change in Fluorescence at 30 minutes DPRP-2 (DPRP-2 [6]): 205.0%

Compound: CC(=O)N[C@@H](CC(C)C)C(=O)N[C@@H](CC(C)C)C(=O)N[C@H](C=O)CCCNC(=N)N [Leupeptin]
Residual activity (% of control) DPPIV (DPPIV [1]; inhibitor 50 μg/ml): 90.7 % of control
Residual activity (% of control) DPRP-2 (DPRP-2 [2]; inhibitor 50 μg/ml): 90.4 % of control
Residual activity (% of control) DPRP-1 (DPRP-1 [3]; inhibitor 50 μg/ml): 91.1 % of control

Compound: C[C@H](NC(=O)[C@@H](N)CCCCN)C(=O)Nc1ccc([N+](=O)[O-])cc1 [Lys-Ala-pNA] (H-Lys-Ala-pNA)
% Change in Fluorescence at 30 minutes DPPIV (DPPIV [4]): 0.5%
% Change in Fluorescence at 30 minutes DPRP-1 (DPRP-1 [5]): 2.5%
% Change in Fluorescence at 30 minutes DPRP-2 (DPRP-2 [6]): 0.5%

Compound: CC(C)CC(=O)N[C@H](C(=O)N[C@H](C(=O)N[C@@H](CC(C)C)[C@@H](O)CC(=O)N[C@@H](C)C(=O)N[C@@H](CC(C)C)[C@@H](O)CC(=O)O)C(C)C)C(C)C [Pepstatin] (Isovaleryl-VV[Sta]A[Sta]-OH)
Residual activity (% of control) DPPIV (DPPIV [1]; inhibitor 2 μg/ml): 93.5 % of control
Residual activity (% of control) DPRP-2 (DPRP-2 [2]; inhibitor 2 μg/ml): 95.0 % of control
Residual activity (% of control) DPRP-1 (DPRP-1 [3]; inhibitor 2 μg/ml): 97.3 % of control

Compound: Aprotinin
Residual activity (% of control) DPPIV (DPPIV [1]; inhibitor 5 μg/ml): 80.2 % of control
Residual activity (% of control) DPRP-2 (DPRP-2 [2]; inhibitor 5 μg/ml): 63.2 % of control
Residual activity (% of control) DPRP-1 (DPRP-1 [3]; inhibitor 5 μg/ml): 77.5 % of control
